Measured values from PMC5772529 (Scientific Reports, 2018).
Positions of bridges follow the written chain, without caps; N, C: chain ends. Residues, ends and D or L forms follow the SMILES beside them.

Columns and labels:
mice [1] = details: mouse, in vivo
mice [2] = details: mouse, in vivo; remark: listed apart in the source
Beagle dogs = details: dog, in vivo
mice [3] = details: mouse, in vivo; remark: listed apart in the source
rats = details: rat, in vivo

SMILES: CSCC[C@@H]1NC(=O)[C@@H]2CSSC[C@H](NC(=O)CN)C(=O)N[C@@H](CSSC[C@@H](C(N)=O)NC(=O)[C@H](CC(C)C)NC(=O)[C@H](CC(N)=O)NC(=O)[C@@H]3CCCN3C(=O)[C@H](CC(N)=O)NC(=O)[C@H](CCCCN)NC(=O)[C@H](CC(C)C)NC1=O)C(=O)N[C@@H](CO)C(=O)N[C@@H](CC(N)=O)C(=O)N1CCC[C@H]1C(=O)N[C@@H](C)C(=O)N2 [Eu1.6] (H-GCCSNPACMLKNPNLC-NH2; disulfide 2-8, 3-16)
- activity at KCNQ1 channels (KCNQ1): no activity
- effect on mice motor function (mice [1]): did not show any significant effect
- effects on mice spontaneous locomotor activity (mice [2]): no significant effects
- effects on spontaneous locomotor activity (moving distance and activity time in 6 min) (mice [2]): no significant effects
- effect on cardiac or respiratory function (Beagle dogs): did not show any significant effect
- effect on the cardiac and respiratory function (Beagle dogs): no significant effect
- morphine-like addictive symptoms (mice [3]): did not exhibit the morphine-like addictive symptoms
- morphine-like dependence (naloxone-induced jumping number, weight loss) (mice [3]): did not produce morphine-like dependence
- side-effects in acute tests of rats (rats): did not exhibit any significant side-effects
